{"source": "patent US20160202234A1", "about": "“METHOD FOR EVALUATING, VIA BIODOSIMETRY, THE I[…] RECEIVED BY A PERSON SUBJECTED TO IONIZING RADIATION” (ACUBENS, priority 2013, published 2016)", "system": "two different cell lines, respectively sensitive S and resistant R", "assay": "ratio of apoptotic cells as a function of NCS concentration, compared with irradiation dose", "type": "cell-based", "settings": "concentration of 1 nM of neocarzinostatin", "procedure": "FIG. 27 is a graph showing the change in the amount of apoptotic cells in a mixture as a function of the quantity of NCS in this mixture,\nFIG. 28 is a graph showing the change in the number of apoptotic cells as a function of the irradiation dose received by an individual,\nThe substance used is for example neocarzinostatin (NCS). […] These graphs made it possible to determine in particular that a concentration of 1 nM of neocarzinostatin is equivalent to, that is to say produces the same effect as, an irradiation dose of 1.2 Gy. Several hair samplings are carried out on the same region of an individual, along with a plurality of blood samplings. Two of the samples are subjected to the action of NCS at a known dose, for example equivalent to 1 Gy, in reaction wells in a plate. Each sample can be treated and analysed, as described previously. One of the two samples is analysed immediately at the same time as a sample that has not received treatment, and the second is analysed after a given period Δt, for example 1 hour.", "data": [{"substance": "neocarzinostatin", "values": [{"measurement": "irradiation dose equivalent to (produces the same effect as) the neocarzinostatin concentration", "result": 1.2, "unit": "Gy"}]}]}
